Values joined by “and” are separate entries in the source; they are usually repeats but may differ in a detail not shown here. Equal entries are not always repeated. “Also recorded” adds a separate entry of the source.
How the values were obtained:
[1] = test system: forebrain-committed neural stem cells; experiment: HD-DoE stage 2, 12-factor experiment: NKX2-1 expression; format: cell-based, human; conditions: model / dynamic profile, in words
Protocol: To further guide the differentiation of forebrain-committed neural stem cells to ventral forebrain neural stem cells at stage 2, a HD-DoE experiment was performed for 3 days after termination of stage 1 treatment. […] This 12-factor experiment included LDN193189, BMP7, PD0325901, MK2206, A8301, XAV939, CHIR99021, Purmorphamine, SANT-1, AGN193109, TTNPB and GSI-XX. […]

[2] = test system: medial ganglionic eminence (MGE)-derived neural progenitors; experiment: HD-DoE stage 4, 12-factor experiment: SOX6 expression; format: cell-based, human; conditions: for impact on expression of SOX6: dynamic profile, in words; for factor contribution, expression of SOX6: positive impact, model optimized for maximal SOX6 at 1442
Excerpt: These effectors are small chemical compounds or proteins. They are commonly used during the differentiation of stem cells to specific cell linage. The choice of the effectors was based on the current literature on forebrain neural induction and differentiation of neural progenitor cells to mature neurons.
To evaluate the effectors on SST differentiation, experiments with 8 or 12 factors were designed to assess the responses of cells to 48 or more combinations of effectors in a range of concentrations. To analyze the models, we focused on expression of genes involved in development and patterning of the forebrain interneurons maturation including LHX6 (Liodis et al. (2007) J. Neurosci. 27:3078-3089; Yuan et al. (2018) Elife 7: e37382), SOX6 (Azim et al. (2009) Nature Neurosci. 12:1238-1247; Batista-Brito et al. (2009) Neuron 63:466-481), DLX5 (de Lombares et al. (2019) Aging (Albany NY) 11:6638; Wang et al. (2010) J. Neurosci. 30:5334-5345) and ASCL1 (Barretto et al. (2020) J. Neurosci. Meth. 334:108548; Shi et al. (2016) J. Biol. Chem. 291:13560-13570). At later stages we focused on interneuron maturation genes including somatostatin and absence of Parvalbumin (Horn and Nicoll (2018) Proc. Natl. Acad. Sci. 115:589-594). The impacts of each effector on gene expression level are defined by a parameter called factor contribution that is calculated for each effector during the modeling.
To identify the recipe for differentiation at stage 4, at least 48 different combinations of effectors were robotically prepared by the Design-of-Experiments compression through D-optimality. The effector combinations were prepared in a basal media and were subsequently added to the cells, which were then allowed to differentiate. Three days later, RNA extraction was performed, and gene expression levels were examined using quantitative PCR analysis. The data was normalized and modeled using partial least squares regression analysis to the effector design, resulting in the generation of gene-specific models, which after model tuning for maximal predictive power, provided explanation of the effectors ability to control the expression of individual genes, combinatorically, and individually. Solutions within the tested space could then be explored to address desirability.
IGF-1 activates the IGF-1 pathway, promotes neuron axonal growth, and establishes the synapse of interneurons. GDNF is the […] and can activate the GDNF pathway. MK2206 is an AKT inhibitor and can inhibit cell proliferation and promote neuronal maturation. PD173074 and BLU-554 are FGFR inhibitors. The FGF pathway is required for the maintenance of neural progenitor cells. Inhibition of the FGFR pathway promotes neural maturation. GSI-XX is a notch pathway inhibitor. Notch pathway inhibits neural progenitor cell differentiation. Inhibition of the Notch pathway promotes neural differentiation.
To find the set of factors that have the potential to optimize SOX6 in this experiment, a new assessment was done through dynamic profile analysis with focus on maximal expression of SOX6.

[3] = test system: stage 2 neural stem cells; experiment: HD-DoE stage 3 experiment: ASCL1, LHX6, DLX1 expression; format: cell-based, human; conditions: for factor contribution, expression of ASCL1: positive, model optimized for maximum ASCL1 at 1700
Protocol: To further guide the cells to medial ganglionic eminence progenitor fate, an additional HD-DoE experiment was performed for 3 days on cells that were treated with stage 1 and stage 2 media for total of 6 days prior to start of the experiment. This experiment included 13 effectors, LDN193189, A8301, GNF5837, AZD3147, GSI-XX, Takinib, PD0325901, PD173074, BLU9931, IGF-1, MHY1485, Purmorphamine and Prostratin. In this model, we focused on maximum expression of genes expressed in neuronal progenitor cells in medial ganglionic eminence (MGE) region including ASCL1, LHX6 and DLX1 (Silberberg et al. (2016) Neuron 92:59-74). When the model was optimized for maximum expression of ASCL1 at 1700, A8301, GSI-XX, Purmorphamine and Takinib, which is an inhibitor of TAK1 pathway, had the highest factor contributions, 18.1, 14.1, 12.7 and 10.1 respectively. […] MHY 1485 also had positive contribution however the factor was below 2 (FIG. 9).
Therefore, six effectors including A8301, GSI-XX, Takinib, GNF5837, IGF-1 and Purmorphamine were finalized as ingredients of stage 3 differentiation media. A representative recipe for Stage 3 differentiation is summarized below in Table 3.

[4] = test system: stage 2 neural stem cells; experiment: Factor criticality analysis, stage 3 recipe; format: cell-based, human; conditions: other five stage 3 factors present; for expression level of DLX1 when the factor is removed: 220 with all six factors; for expression level of LHX6 when the factor is removed: 240 with all six factors; for expression level of ASCL1 when the factor is removed: 1650 with all six factors
Protocol: (§1) To assess the impact of the elimination of each validated factor, dynamic profile analysis was used and compared the expression level of genes of interest in absence of each finalized factor while others are present.
In the stage 3 recipe, each of the six finalized factors were removed while the other five factors remained present and the expression levels of ASCL1, DLX1 and LHX6 were assessed compared to the presence of all six factors. […] As expected, in the absence of IGF-1, the value of DLX1 increases to 410, however, ASCL1 and LHX6 decreased to 1390 and 220, respectively.

[5] = test system: medial ganglionic eminence (MGE)-derived neural progenitors; experiment: Factor criticality analysis, stage 4 recipe; format: cell-based, human; conditions: FIG. 27, in words
Protocol: To assess the impact of elimination of each validated factor, dynamic profile analysis was again used to compare the expression levels of genes of interest in the absence of each finalized factor while the others were present in the media.
In the stage 4 recipe, each of the five finalized factors was removed while the other four factors remained present in the media and the expression level of forebrain genes was assessed compared to the presence of all 6 factors. SOX6 expression was reported to determine the cortical interneuron-precursors cell fate (see e.g., Azim et al. (2009) Nature Neurosci. 12:1238-1247; Batista-Brito et al. (2009) Neuron 63:466-481). Therefore, optimization of SOX6 expression was focused on at this stage.

[6] = test system: human pluripotent stem cells; experiment: Factor criticality analysis, stage 1 recipe (dynamic profile analysis); format: cell-based; conditions: 3500 with all factors; FIG. 12
Excerpt: as §1, with “present. […] When Purmorphamine was removed, levels of FEZF2 and SIX3 were decreased to 1000 and below 3000, while levels of OTX2 increased to 6500.” for “present.”

[7] = test system: forebrain-committed neural progenitor cells; experiment: HD-DoE stage 5, 8-factor experiment (JQ1, Indolactam-V ...): Somatostatin expression; format: cell-based, human
Protocol: To further guide the differentiation of forebrain-committed neural progenitor cells to somatostatin interneuron cells at stage 5, HD-DoE experiments were performed for 3 days after termination of stage 4 treatment. At this time, we focused on maximum expression of SST that was expressed in Somatostatin (+) interneurons and minimum expression of Parvalbumin that is another type of interneurons. This 8-factor experiment included JQ1, (−)-Indolactam-V, Oleic acid, BDNF, IGF-1, 2-phospho-L-Ascorbic acid, Albumax, MK2206. When the model was maximized for expression of Somatostatin, six effectors were identified that could increase its expression levels, including (−)-Indolactam-V, Oleic acid, BDNF, 2-phospho-L-ascorbic acid, Albumax, and MK2206, as shown in FIG. 21. Using dynamic profile analysis, the results of which are shown in FIG. 22, the model was modified to achieve the maximum expression level of Somatostatin and therefore (−)-Indolactam-V, BDNF, and 2-phospho-L-ascorbic acid were included while JQ-1, Oleic acid, Albumax and MK2206 were excluded. Considering the model at different optimization settings for maximum differentiation of cells toward ventral forebrain, the recipe for stage 5 of differentiation included (−)-Indolactam-V, BDNF, IGF-1, and 2-phospho-L-ascorbic acid from this HD-Doe experiment.

[8] = test system: human pluripotent stem cells; experiment: HD-DoE stage 1, additional experiment: FEZF2 expression; format: cell-based
Protocol: To identify the recipe for stage 1 of differentiation, 96 different combinations of effectors generated using Design-of-Experiments compression through D-optimality were robotically prepared. The effector combinations were prepared in a basal media and were subsequently added to the cells, which were then allowed to differentiate. Three days later RNA extraction was performed, and gene expression was obtained using quantitative PCR analysis. The data were normalized and modeled using partial least squares regression analysis to the effector design, resulting in the generation of gene-specific models, which after model tuning for maximal Q2 predictive power, provided explanation of the effectors ability to control the expression of individual genes, combinatorically, and individually. Solutions within the tested space could then be explored to address desirability. To further enhance the conditions for forebrain differentiation from pluripotency, an additional HD-DoE experiment was performed. Additional gene regulatory models were obtained that were used for preparation of the differentiation protocol. The factors in this experiment included LDN193189, PD173074, BLU9931, Purmorphamine, SC79, MK2206, ZM336372, PD0325901, CHIR99021, XAV939, UCLA-GP130, Tofacitinib and GO6983. […] Dynamic profile analysis was also used to assess the interaction between the effectors.

[9] = test system: forebrain-committed neural progenitor cells; experiment: HD-DoE stage 5, 8-factor experiment (GDNF, BDNF, NT-3 ...): Somatostatin expression; format: cell-based, human; conditions: FIG. 24 dynamic profile, in words
Protocol: To investigate the effects of other factors on differentiation of forebrain-committed neural progenitor cells to Somatostatin interneuron cells, an additional HD-DoE experiment was performed for 3 days on cells that were treated with stage 1 to stage 4 medium for a total of 12 days prior to the new experiment. This experiment, the results of which are shown in FIG. 23, included eight effectors, GDNF, BDNF, NT-3, ß-NGF, Linoleic acid, 5-Cholesten-3β, LIF and TGF-β3. In this model, we focused on maximum expression of Somatostatin gene expressed in Somatostatin (+) interneurons (Urban-Ciecko and Barth (2016) Nature Reviews Neurosci. 17:401-409). When the model was optimized for maximum expression of Somatostatin, BDNF, NT-3, beta-NGF and Linoleic acid had the highest factor contributions, 25.7, 2, 19.9, 23.5, respectively.
Therefore, the latter were excluded in the recipe.

Molecule	impact on expression of NKX2-1 [1]	impact on expression of SOX6 [2]	factor contribution, expression of SOX6 [2]	impact on expression of ASCL1 ([3]; dynamic profile, in words)	impact on expression of LHX6 ([3]; dynamic profile, in words)	factor contribution, expression of ASCL1 [3]	expression level of DLX1 when the factor is removed [4]	expression level of LHX6 when the factor is removed [4]	expression level of ASCL1 when the factor is removed [4]	effect on PVALB expression [5]	effect on SOX6 expression [5]	effect on Somatostatin expression [5]	expression level of FEZF2 when the factor is removed [6]	impact on expression of Somatostatin ([7]; FIG. 21/22, in words)	factor contribution, expression of Somatostatin ([7]; positive, 8-factor experiment of FIG. 21)	impact on expression of FEZF2 ([8]; dynamic profile, in words)	factor contribution, expression of FEZF2 ([8]; positive impact, additional stage 1 experiment optimized for FEZF2)	impact on expression of DLX1 ([3]; dynamic profile, in words)	impact on expression of Somatostatin [9]
C[C@H](NC(=O)Cc1cc(F)cc(F)c1)C(=O)N[C@@H]1C(=O)N(C)c2ccccc2-c2ccccc21 [GSI-XX]	increase	positive impact	3.6	Positive impact	Positive impact	14.1 and 14	50	140	1200	minimal effect	increase	contribute							
NC1(c2ccc(-c3nc4ccn5c(=O)[nH]nc5c4cc3-c3ccccc3)cc2)CCC1 [MK2206]	increase	positive impact	7.2							decrease	increase		2700	increase; also recorded: positive impact	4.2	positive impact	11 and 12.2		
IGF-1: Growth factor; activates the IGF-1 pathway		positive impact	2.9	positive effect	positive effect	7	410	220	1390		increase							negative impact	
GDNF: Glial cell line-derived neurotrophic factor; can activate the GDNF pathway (protein, UniProt P39905 78-211, looked up) Glial cell line-derived …: SPDKQMAVLPRRERNRQAAAANPENSRGKGRRGQRGKNRGCVLTAIHLNVTDLGLGYETKEELIFRYCSGSCDAAETTYDKILKNLSRNRRLVSDKVGQACCRPIAFDDDLSFLDDNLVYHILRKHSAKRCGCI		positive impact	21								increase								negative impact

— patent US20250092360A1, “METHODS AND COMPOSITIONS FOR GENERATING SOMATOSTATIN+ INTERNEURONS FROM HUMAN FOREBRAIN NEURAL PROGENITOR CELLS” (Trailhead Biosystems Inc., priority 2023, published 2025)
